Series [1] deals with NC lines (Ty-82) versus AML cell lines (MV-4-11). The series can be described thus: Incucyte caspase-3/7 apoptosis / cell death analysis. Type of series: cell-based, human. The note with it: in contrast to AML cell lines, Supplementary Fig. S3. The method, then: Live-cell imaging was performed with the Incucyte® S3 Live-Cell Analysis System as described previously for Incucyte® Zoom.
Incucyte analysis. Ty-82 cells (NC) or MV-4-11 (AML) cells were treated with BI 894999 at the concentrations indicated and analyzed over time with the IncuCyte™Caspase-3/7 Apoptosis Assay Reagent (Essenbioscience Cat No 4440). Cell confluence (left) and green fluorescence as a measure of caspase 3/7 activation (right) were monitored for up to 7 days with images taken every 3 hours.

For series [2], the system named is HEXIM1. The series can be described thus: Pharmacometrics (PK/PD) simulation. The note with it: Supplement Fig. 6. The method, then: Pharmacometrics simulation for platelet counts (top) and plasma concentration (bottom) as a function of four different dosing regimens of BI 894999. Solid line of 10nM indicated the estimated plasma concentration needed to stimulate a maximum 2-fold change from baseline for HEXIM1.

Series [3] can be described thus: PK analysis in mouse plasma. It is filed as in vivo. The note with it: CIEA NOG (NOD.Cg-Prkdc^scid Il2rg^tm1Sug/JicTac), po, mice, 2 mg/kg p.o. An excerpt:
PK analysis in mouse plasma. Oral treatment at the indicated doses. Sampling at the indicated timepoints.

Series [4] relates to Ty-82 xenograft (BRD4-NUT). The series can be described thus: Ty-82 NC xenograft model. Type of series: in vivo, mice. The note with it: 2 mg/kg BI 894999 p.o. daily. An excerpt:
(§1) Mice were group-housed (8–10 mice per cage) under pathogen-free and controlled environmental conditions (21 ± 1.5 C temperature, 55 ± 10% humidity) in an AAALAC accredited facility and handled according to the institutional, governmental and European Union guidelines (Austrian Animal Protection Laws, GV-SOLAS and FELASA guidelines). Animal studies were approved by the internal ethics committee and the local government committee. Mice were 6- to 8-week-old female CIEA NOG purchased from Taconic, Denmark (NOD.Cg-Prkdc^scid Il2rg^tm1Sug/JicTac). 5 × 10^6 NC tumour cells were injected subcutaneously into the right flank of the mice (1 site per mouse). Mice were randomly distributed between the treatment and the vehicle control when tumours were well established and had reached volumes of 100–150 mm^3. Compounds were suspended in 0.5% Natrosol and administered once daily intra-gastral by gavage needle. Tumour diameters were measured three times a week with a calliper. […] Within each subtopic the p-values of the efficacy parameters were adjusted for multiple comparisons according to Bonferroni–Holm. The p-values of the tolerability parameter remained unadjusted in order not to overlook a possible adverse effect. The level of significance was fixed at α = 5%. An adjusted p-value of less than 0.05 was considered to show a statistically significant difference between the groups. The statistical evaluation was prepared using the software Graph Pad Prism.

In series [5] the target is BRD4-BD1 (Homo sapiens, UniProt O60885). As to the kind of experiment: BRD4 AlphaLISA assay, BRD4-BD1. Type of series: binding. The note with it: displacement of acetyl-histone H4 peptide (Lys5, 8, 12, 16). An excerpt:
This bead-based proximity assay is based on the competitive displacement of a histone peptide (acetyl-histone H4/Lys5, 8, 12, 16) from the human bromodomain [22].
In general terms: In Alpha technology, singlet oxygen from a donor bead excites a nearby acceptor bead.

Series [6] concerns HEXIM1 and HIST2H2BF. The series can be described thus: Nanostring analysis of pathway modulation markers in patient blood. It is filed as in vivo. The note with it: patients. As for the experimental part: (§2) Schedule B (NCT02516553): daily oral treatment from Day 1 to Day 14 at 2.5 mg/day followed by a week-off in 3-week cycles. Schedule C (NCT02516553): one week-on, one week-off treatment, repeated every two weeks in 4-week cycles with, at each treatment week, a loading dose (6 mg) on Day 1 followed by a maintenance dose (3 mg per day) on the following 6 days.
Total RNA was extracted from whole blood using PAXgene Blood RNA kit (Qiagen) following the manufacturers’ instructions. Total RNA was quantified by direct absorbance measurement at 260 nm using a NanoDrop Spectrophotometer. Quality check was performed by additional measurement of absorbance at 280 nm and calculation of the absorbance ratio OD260/OD280.
mRNA expression was assessed using a custom NanoString nCounter codeset generated for the genes of interest plus housekeeping genes. In brief, probes were hybridised to 150 ng of total RNA for 19 h at 65 °C and applied to the nCounter™ Preparation Station for automated removal of excess probe and immobilisation of probe‐transcript complexes on a streptavidin‐coated cartridge. Data was collected using the nCounter™ Digital Analyzer by counting the individual barcodes.
Data were analysed using an in-house analysis pipeline that follows the latest Nanostring Technologies standards for the analysis of nCounter data. The analysis pipeline includes QC of the raw data using the NACHO [26]. The housekeeping genes ACTB, GAPDH, HPRT1, MGAT1 and TMED9 were used for normalisation. After normalisation expression values were exported and used for figure generation using […] [27].

The test system of series [7] is T1, BRD3-NUT.
T1 construct: endogenous in cells; host or cells: 10326 NUT carcinoma cells, in culture (A11) and as subcutaneous xenograft tumours in NOG mice (A26)
As to the kind of experiment: IHC of 10326 xenograft tumours, NUT protein. Type of series: in vivo, mice. The note with it: day 21, 2 mg/kg BI 894999. As for the experimental part:
Immunohistochemistry was performed on formalin-fixed, paraffin-embedded tumour tissue using antibodies against human Ki67(Cell Signaling #9027, 1:400 dilution), anti-human mitochondria (Abcam ab92824, 1:1000 dilution) and against endogenous NUT protein (Cell Signaling #3625, 1:50 dilution) used to detect NUT fusion proteins. Digital images of whole tissue sections were acquired using a Leica SCN400 histology scanner (Leica Microsystems). Ki67-positive index was evaluated using Halo Software V. 3.2 (Indica lab). Regions of interest (ROIs) within the tissue sections were first identified using Halo Software via machine learning technology across pathological samples and tissue control, within these ROIs, nuclei were detected and classified as positive or negative based on IHC staining thresholds.
BRD3-NUT 10326 tumor sections after treatment with 2 mg/kg BI 894999, 5 mg/kg or 10 mg/kg CCS1477 and the combination of both. IHC staining for NUT protein.

Series [8] can be described thus: Phase I trial MTD and platelet counts (NCT02516553). It is filed as in vivo. The note with it: patients. The method, then: as §2
Series [9] relates to 10–15 xenograft (BRD4-NUT). As to the kind of experiment: 10–15 NC xenograft model. The note with it: 2 mg/kg BI 894999. Type of series: in vivo, mice.
Description: as §1

Some results are limits rather than exact numbers.

On to `CNc1nc(-c2nc3ccc(N4CCN(C)CC4)cc3n2Cc2ccccc2)cn2c(C)nnc12` [BI 894999], for which, in series [1], the “fold higher compound concentrations required to undergo cell death” value was > 100 fold. Further, the “estimated plasma concentration needed to stimulate a maximum 2-fold change from baseline for HEXIM1” value in series [2] is on record as 10 nM. The molecule also gave a maximum concentration (Cmax) in series [3] of 10 nM. Further, the “TGI (tumour growth inhibition)” value in series [4] worked out at 5%. In [5], this molecule had an IC50 of 5 ± 3 nM. The “pharmacodynamic modulation of HEXIM1 and HIST2H2BF” value in [6] (Schedule B 2.5 mg) is reported as “max. two-fold”. In series [6] (Schedule C 6/3 mg, maximum), the “PD modulation of HEXIM1 and HIST2H2BF” value is given as “up to four-fold”. Besides, the “PD modulation of HEXIM1 and HIST2H2BF still measurable” value in [6] (Schedule C, 23.5 h after drug application) is “two-fold”. For the same molecule, the “speckled megadomain localisation (NUT staining)” value in [7] was “complete loss”. For the same molecule, the “tolerability as measured by platelet nadir counts” value in series [8] (Schedule C compared to Schedule B at MTD, comparable 6-week cumulative dose (72 vs 70 mg)) was “better tolerability”. Further, the thrombocytopenia events entry in [8] (Schedule C versus Schedule B at equivalent 6-week cumulative dose) was “less >Grade 3 thrombocytopenia events”. Moreover, the “MTD, loading dose” value in [8] (Schedule C, Day 1) came to 6 mg. In addition, the “MTD, maintenance dose” value in series [8] (Schedule C, following 6 days) was determined as 3 mg. Further, the TGI in series [9] is listed as 40%.

What is called Cmax is the maximum level reached in the sampled fluid or tissue. In general, IC50 refers to the midpoint of a concentration-inhibition curve. Usually TGI stands for the reduction of tumour growth relative to the control group. The low end stands for a weaker effect on the tumour, the high end for a stronger effect on the tumour.

(Values after article PMC9346113, “Therapeutic impact of BET inhibitor BI 894999 treatment: backtranslation from the clinic” (British Journal of Cancer, 2022).)
